Measurements as given in US9126941B2, “Treatment of hyperproliferative disorders with diarylhydantoin compounds” (The Regents of the University of California, priority 2005, dated 2015).
Where two headings read alike, the source gives them in different places.

What was measured:
AR [1] = target: T1, AR (Homo sapiens, UniProt P10275); experiment: cell-based; type: cell-based; settings: for IC50 (nM) Reporter / Inhibitory activity on AR in reporter system: LNCaP-AR; for IC50 (nM) Reporter: 100 pM R1881, two days, No = did not inhibit AR response reporter; for Inhibitory activity on AR in reporter system: hormone refractory
Description: The compounds were subjected to tests using an artificial AR response reporter system in a hormone refractory prostate cancer cell line. […] After two days of incubation, reporter activities were assayed.

[2] = Ranking of compounds in tiers for utility in treating prostate cancer; settings: assay not specified
Description: The placement of compounds into tiers was based on available data coupled with analytical judgment. Data considered included in vitro assays (AR response reporter system in LNCaP cell line, PSA level measurement, MTS mitochondrial assay) and in vivo experiments (tumor size measured directly or by emission induced by luciferase reporter gene, pharmacokinetic assays based on blood plasma levels). Not every compound was subjected to each assay. […] Judgment was applied in ranking compounds relative to each other for their utility in treating prostate cancer, in particular when ranking two compounds for which the same experiments were not performed. Characteristics considered in establishing the ranking include AR antagonism activity, lack of AR agonism in hormone refractory cells, prevention of tumor growth, tumor shrinkage, and pharmacokinetic behavior, with a longer residence time in blood being advantageous.

AR [3] = target: T1, AR; experiment: cell-based; type: cell-based; settings: for Agonistic activity, secreted PSA: AR over expressed LNCaP, absence of R1881; for fold induction at 0.1 µM / fold induction at 1 µM / fold induction at 10 µM: LNCaP; for fold induction at 0.1 µM: read-out: Fold induction of endogenous PSA, 0.1 μM; for fold induction at 1 µM: read-out: Fold induction of endogenous PSA, 1 μM; for fold induction at 10 µM: read-out: Fold induction of endogenous PSA, 10 μM
AR [4] = target: T1, AR; experiment: cell-based; type: cell-based; settings: for Rank order, most active to least active, relative PSA level (FIG. 4): 500 nM; for Decrease in PSA level of LNCaP-AR cells, comparison (FIG. 4): at concentrations of 1000 nM
Description: It is well established that PSA levels are indicators of AR activities in prostate cancer. […] The LNCaP-AR cells are a line of lymph node carcinoma of prostate cells transduced with a plasmid that makes express androgen receptors. […] After four days incubation, secreted PSA levels were assayed using PSA ELISA kits (American Qualex, San Clemente, Calif.)

AR [5] = target: T1, AR; experiment: cell-based; settings: for Agonistic activity on AR, reporter: LN-AR, absence of R1881; for fold induction at 0.1 µM: read-out: Fold induction of AR response reporter, 0.1 μM; for fold induction at 1 µM: read-out: Fold induction of AR response reporter, 1 μM; for fold induction at 10 µM: read-out: Fold induction of AR response reporter, 10 μM
Text: Table 2 lists the agonistic activities of different compounds.

T1 sequence (P10275 whole entry, looked up): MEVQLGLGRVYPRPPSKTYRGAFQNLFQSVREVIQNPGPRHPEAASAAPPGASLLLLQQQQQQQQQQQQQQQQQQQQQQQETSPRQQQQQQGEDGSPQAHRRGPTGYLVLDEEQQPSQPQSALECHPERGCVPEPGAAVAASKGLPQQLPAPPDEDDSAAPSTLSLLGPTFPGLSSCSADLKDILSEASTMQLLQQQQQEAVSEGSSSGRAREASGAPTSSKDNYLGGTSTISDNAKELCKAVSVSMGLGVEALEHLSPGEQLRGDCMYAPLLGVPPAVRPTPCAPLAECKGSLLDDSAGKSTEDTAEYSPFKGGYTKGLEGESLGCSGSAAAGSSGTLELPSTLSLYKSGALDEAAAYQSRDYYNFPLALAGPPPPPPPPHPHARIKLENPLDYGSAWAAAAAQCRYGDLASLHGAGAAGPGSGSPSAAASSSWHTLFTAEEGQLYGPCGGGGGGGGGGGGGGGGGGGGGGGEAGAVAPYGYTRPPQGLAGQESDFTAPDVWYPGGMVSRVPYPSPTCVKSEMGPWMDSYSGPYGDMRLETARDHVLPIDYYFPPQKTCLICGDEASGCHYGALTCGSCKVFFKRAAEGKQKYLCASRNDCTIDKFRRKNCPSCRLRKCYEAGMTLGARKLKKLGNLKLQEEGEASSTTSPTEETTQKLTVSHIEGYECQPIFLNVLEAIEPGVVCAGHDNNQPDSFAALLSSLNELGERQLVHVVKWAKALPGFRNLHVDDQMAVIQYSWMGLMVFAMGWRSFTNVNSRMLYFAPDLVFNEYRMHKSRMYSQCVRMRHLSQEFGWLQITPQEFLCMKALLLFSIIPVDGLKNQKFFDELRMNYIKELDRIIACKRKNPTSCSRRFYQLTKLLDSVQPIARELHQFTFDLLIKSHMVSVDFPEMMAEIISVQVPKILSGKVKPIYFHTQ

In the case of `N#Cc1ccc(N2C(=S)N(c3ccc(C#N)c(C(F)(F)F)c3)C(=O)C23CCCC3)cc1` [RD54, 4-[1-(4-cyanophenyl)-4-oxo-2-thioxo-1,3-diazaspiro[4.4]non-3-yl]-2-trifluoromethylbenzonitrile], the IC50 (AR [1]) is reported as 469 nM and the Indication of agonism [2] is reported as “could act as an agonist”.

With `Cc1ccc(N2C(=S)N(c3ccc(C#N)c(Cl)c3)C(=O)C2(C)C)cc1` [RD72] the “Activity (words, overall)” value [2] was “very poor activity”.

For `CN1C(=S)N(c2ccc(C#N)c(C(F)(F)F)c2)C(=O)C12CCC2` [RD73, 4-(5-methyl-8-oxo-6-thioxo-5,7-diazaspiro[3.4]oct-7-yl)-2-trifluoromethylbenzonitrile, reference compound], the “Agonistic activity, secreted PSA” value (AR [3]) was “stimulated PSA expression”, the fold induction at 0.1 µM (AR [3]) was 6.25 and the fold induction at 1 µM (AR [3]) was 17.9. The fold induction at 10 µM (AR [3]) was 25.6, the “IC50 (nM) PSA” value (AR [4]) was “No” and the “IC50 (nM) Reporter” value (AR [1]) was “No”. For the same compound, the “Inhibitory activity on AR in reporter system” value (“Inhibitory activity on AR” for short) (AR [1]) was “no inhibitory activities”, the “Agonistic activity on AR, reporter” value (AR [5]) was “strongly activated AR” and the fold induction at 0.1 µM (AR [5]) was 14.9. The fold induction at 1 µM (AR [5]) was 19.4 and the fold induction at 10 µM (AR [5]) was 35.2.

In the case of `CN1C(=O)N(c2ccc(C#N)c(C(F)(F)F)c2)C(=O)C12CCC2` [RD74, 4-(5-methyl-6,8-dioxo-5,7-diazaspiro[3.4]oct-7-yl)-2-trifluoromethylbenzonitrile, reference compound], the “Agonistic activity, secreted PSA” value (AR [3]) is reported as “stimulated PSA expression”, the fold induction at 0.1 µM (AR [3]) is reported as 7.5 and the fold induction at 1 µM (AR [3]) is reported as 15.2. For the same compound, the fold induction at 10 µM (AR [3]) was 23.8, the “IC50 (nM) PSA” value (AR [4]) was “No” and the “IC50 (nM) Reporter” value (AR [1]) was “No”. For the same compound, the “Inhibitory activity on AR” value (AR [1]) was “no inhibitory activities”, the “Agonistic activity on AR, reporter” value (AR [5]) was “strongly activated AR” and the fold induction at 0.1 µM (AR [5]) was 11.4. For the same compound, the fold induction at 1 µM (AR [5]) was 14.3 and the fold induction at 10 µM (AR [5]) was 30.6.

For `CN1C(=S)N(c2ccc(C#N)c(C(F)(F)F)c2)C(=O)C12CCCC2` [RD75, 4-(1-methyl-4-oxo-2-thioxo-1,3-diazaspiro[4.4]non-3-yl)-2-trifluoromethylbenzonitrile, reference compound], the “Agonistic activity, secreted PSA” value (AR [3]) was “stimulated PSA expression”, the fold induction at 0.1 µM (AR [3]) was 8.13 and the fold induction at 1 µM (AR [3]) was 18.2. The fold induction at 10 µM (AR [3]) was 17.5, the “IC50 (nM) PSA” value (AR [4]) was “No” and the “IC50 (nM) Reporter” value (AR [1]) was “No”. The “Inhibitory activity on AR” value (AR [1]) was “no inhibitory activities”, the “Agonistic activity on AR, reporter” value (AR [5]) was “strongly activated AR” and the fold induction at 0.1 µM (AR [5]) was 17. It also gave a fold induction at 1 µM (AR [5]) of 16.6 and a fold induction at 10 µM (AR [5]) of 33.8.

In the case of `CN1C(=O)N(c2ccc(C#N)c(C(F)(F)F)c2)C(=O)C12CCCC2` [RD76, 4-(1-methyl-2,4-dioxo-1,3-diaza-spiro[4.4]non-3-yl)-2-trifluoromethylbenzonitrile], the “IC50 (nM) PSA” value (AR [4]) is reported as “No”, the “IC50 (nM) Reporter” value (AR [1]) is reported as “No” and the “Inhibitory activity on AR” value (AR [1]) is reported as “no inhibitory activities”. The “Agonistic activity on AR, reporter” value (AR [5]) was “strongly activated AR”, the fold induction at 0.1 µM (AR [5]) was 12 and the fold induction at 1 µM (AR [5]) was 19.8. The fold induction at 10 µM (AR [5]) was 39.

For `N#Cc1ccc(N2C(=O)C3(CCCC3)NC2=S)cc1C(F)(F)F` [RD77, 4-(4-oxo-2-thioxo-1,3-diazaspiro[4.4]non-3-yl)-2-trifluoromethylbenzonitrile], the “IC50 (nM) PSA” value (AR [4]) was “No”, the “IC50 (nM) Reporter” value (AR [1]) was “No” and the “Inhibitory activity on AR” value (AR [1]) was “no inhibitory activities”. For the same compound, the “Agonistic activity on AR, reporter” value (AR [5]) was “strongly activated AR”, the fold induction at 0.1 µM (AR [5]) was 14.9 and the fold induction at 1 µM (AR [5]) was 22.5. The fold induction at 10 µM (AR [5]) was 37.1.

For `CCNC(=S)N=C1N(c2ccc(C#N)c(C(F)(F)F)c2)C(=S)N(c2ccc(C)cc2)C1(C)C` [RD91, 1-[3-(4-cyano-3-trifluoromethyl-phenyl)-5,5-dimethyl-2-thioxo-1-p-tolyl-imidazolidin-4-ylidene]-3-ethyl-thiourea], the “Agonistic activity, secreted PSA” value (AR [3]) was “no agonistic activities”, the fold induction at 0.1 µM (AR [3]) was 1.06 and the fold induction at 1 µM (AR [3]) was 1.3. For the same compound, the fold induction at 10 µM (AR [3]) was 0.85, the “Agonistic activity on AR, reporter” value (AR [5]) was “no agonistic activity” and the fold induction at 0.1 µM (AR [5]) was 1.3. The fold induction at 1 µM (AR [5]) was 1.18 and the fold induction at 10 µM (AR [5]) was 1.28.

With `Cc1ccc(N2C(=S)N(c3ccc(C#N)c(C(F)(F)F)c3)C(=NC(=S)Nc3ccccc3)C23CCC3)cc1` [RD92, 1-[7-(4-cyano-3-trifluoromethyl-phenyl)-6-thioxo-5-p-tolyl-5,7-diaza-spiro[3.4]oct-8-ylidine]-3-phenyl-thiourea] the “Agonistic activity, secreted PSA” value (AR [3]) was “no agonistic activities”, the fold induction at 0.1 µM (AR [3]) was 1.31 and the fold induction at 1 µM (AR [3]) was 1.05. The fold induction at 10 µM (AR [3]) was 0.9, the “Agonistic activity on AR, reporter” value (AR [5]) was “no agonistic activity” and the fold induction at 0.1 µM (AR [5]) was 1.19. The fold induction at 1 µM (AR [5]) was 1.41 and the fold induction at 10 µM (AR [5]) was 1.17.

In the case of `Cc1ccc(N2C(=S)N(c3ccc(C#N)c(C(F)(F)F)c3)C(=NC(=S)Nc3ccc(C#N)c(C(F)(F)F)c3)C23CCC3)cc1` [RD93, 1-(4-Cyano-3-trifluoromethyl-phenyl)-3-[7-(4-cyano-3-trifluoromethyl-phenyl)-6-thioxo-5-p-tolyl-5,7-diaza-spiro[3.4]oct-8-ylidene]-thiourea], the “Agonistic activity, secreted PSA” value (AR [3]) is reported as “no agonistic activities”, the fold induction at 0.1 µM (AR [3]) is reported as 1.44 and the fold induction at 1 µM (AR [3]) is reported as 1.3. The fold induction at 10 µM (AR [3]) was 1.05, the “Agonistic activity on AR, reporter” value (AR [5]) was “no agonistic activity” and the fold induction at 0.1 µM (AR [5]) was 1.26. For the same compound, the fold induction at 1 µM (AR [5]) was 1.1 and the fold induction at 10 µM (AR [5]) was 1.3.

For `Cc1ccc(N2C(=S)N(c3ccc(C#N)c(I)c3)C(=O)C2(C)C)cc1` [RD100], the “Activity (words, overall)” value [2] was “good activity”.

With `N#Cc1ccc(N2C(=O)C3(CCC3)N(c3ccc(CCC(=O)NCCO)cc3)C2=S)cc1C(F)(F)F` [RD135, 3-{4-[7-(4-cyano-3-trifluoromethylphenyl)-8-oxo-6-thioxo-5,7-diaza-spiro[3.4]oct-5-yl]-phenyl}-N-(2-hydroxyethyl)-propionamide] the “Rank order, most active to least active, relative PSA level (FIG. 4)” value (“Rank order … relative PSA level (FIG. 4)” below) (AR [4]) was “RD138>RD131>RD37>RD133>RD134>RD137>RD138>RD135>bicalutamide”, the “Decrease in PSA level of LNCaP-AR cells, comparison (FIG. 4)” value (“Decrease in PSA level of LNCaP-AR cells” below) (AR [4]) was “greater decrease in PSA level than bicalutamide” and the IC50 (AR [1]) was 732 nM.

For `N#Cc1ccc(N2C(=O)C3(CCC3)N(c3ccc(N4CCNCC4)cc3)C2=S)cc1C(F)(F)F` [RD137, 4-[8-Oxo-5-(4-piperazin-1-yl-phenyl)-6-thioxo-5,7-diazaspiro[3,4]oct-7-yl]-2-trifluoromethylbenzonitrile], the “Rank order … relative PSA level (FIG. 4)” value (AR [4]) was “RD138>RD131>RD37>RD133>RD134>RD137>RD138>RD135>bicalutamide”, the “Decrease in PSA level of LNCaP-AR cells” value (AR [4]) was “greater decrease in PSA level than bicalutamide” and the IC50 (AR [1]) was 718 nM.

In the case of `CS(=O)(=O)N1CCN(c2ccc(N3C(=S)N(c4ccc(C#N)c(C(F)(F)F)c4)C(=O)C34CCC4)cc2)CC1` [RD138, 4-{5-[4-(4-methanesulfonylpiperazin-1-yl)-phenyl]-8-oxo-6-thioxo-5,7-diazaspiro[3.4]oct-7-yl}-2-trifluoromethylbenzonitrile], the “Rank order … relative PSA level (FIG. 4)” value (AR [4]) is reported as “RD138>RD131>RD37>RD133>RD134>RD137>RD138>RD135>bicalutamide”, the “Decrease in PSA level of LNCaP-AR cells” value (AR [4]) is reported as “greater decrease in PSA level of LNCaP-AR cells than RD135 and RD137” and the IC50 (AR [1]) is reported as 138 nM.

For `CC1(C)C(=O)N(c2ccc(C#N)c(C(F)(F)F)c2)C(=S)N1CCCCO` [RU 59063, 4-[3-(4-hydroxybutyl)-4,4-dimethyl-5-oxo-2-thioxoimidazolidin-1-yl]-2-trifluoromethylbenzonitrile, reference compound], the “Agonistic activity, secreted PSA” value (AR [3]) was “stimulated PSA expression”, the fold induction at 0.1 µM (AR [3]) was 6.88 and the fold induction at 1 µM (AR [3]) was 11.5. For the same compound, the fold induction at 10 µM (AR [3]) was 21.5, the “IC50 (nM) PSA” value (AR [4]) was “No” and the “IC50 (nM) Reporter” value (AR [1]) was “No(*)”. For the same compound, the “Agonistic activity on AR, reporter” value (AR [5]) was “strongly activated AR”, the fold induction at 0.1 µM (AR [5]) was 11 and the fold induction at 1 µM (AR [5]) was 20.8. It also gave a fold induction at 10 µM (AR [5]) of 34.6.
